Measured values as given in patent US20030162834A1, “Natural physiologically active material effective on fish diseases and fish food containing the material” (priority 1998, published 2003).

Test system: Cryptocaryon irritans
Test: Trial 7: vitamin C enhancement trial on red sea bream
Type: in vivo
Conditions: oral
Text: Fish tested: Red sea bream weighing approximately 15.8 g in average.
Trial groups: Three groups, i.e., an octanoic-acid added group in which fish were fed diets added with octanoic acid, an octanoic-acid added/vitamin-C enhanced group in which fish were fed diets added with both octanoic acid and vitamin C, and a control group in which fish were fed diets not added with octanoic acid. The feeding rate was 3% of fish weight/day for each group.
Trial diets: The diets added with octanoic acid were prepared by spraying 2.5 g of octanoic acid to 1 kg of commercially available pellets for red sea bream. The diets added with both octanoic acid and vitamin C were prepared by spraying 200 mg of vitamin C, dissolved in water, to 1 kg of the above diets added with octanoic acid. The control group fish were fed the commercially available pellets for red sea bream.
Challenge trial: Each 30 pieces of fish from among a shoal of fish, in which no diseases such as Cryptocaryon irritans infection were found, were put in a 100-liter water tank, and were fed the respective trial diets. After 5 days, approximately 2000 individuals of theronts of Cryptocaryon irritans were put into each water tank to infect the fish while water flow was stopped for 1 hour. Then, bleeding was continued for 60 days. During the trial period, the water temperature was 24+−1 degrees centigrade and the water was exchanged at 20 cycles/day.
Evaluation was made by sampling 5 pieces of fish from each group after 18 and 31 days from the start of the challenge, comparing the number of the parasites attaching to the gill of each fish, and comparing mortality of the fish during the trial period between the respective groups.

Structure (SMILES): CCCCCCCC(=O)O [octanoic acid]
- number of parasites attaching to the gill after 18 and 31 days (2.5 g octanoic acid per 1 kg pellets (with or without 200 mg vitamin C per kg)): apparently fewer
- fish mortality during the trial (2.5 g octanoic acid per 1 kg pellets (with or without 200 mg vitamin C per kg), 60 days): all dead
- time at which the fish began dying, versus control (2.5 g octanoic acid per 1 kg pellets): later
